The results in this text go back to patent publication US20200010482A1, “INHIBITORS OF BETA SECRETASE” (Janssen Pharmaceutica NV, priority 2017, published 2020).

Experiment [1] has as its system Abeta 1-42 produced and secreted by SKNBE2 cells expressing hAPP695. The experiment in a line: Cellular αLisa assay in SKNBE2 cells, Abeta 1-42. It counts as cell-based, human. The conditions noted are these: SKNBE2 cells expressing hAPP695, 18 hours incubation; for IC50: Homo sapiens, SKNBE2, 18 h, read-out: CELLULAR αLISA ASSAY IN SKNBE2 CELLS ABETA 42 PIC50 (converted). Here is the method:
In two αLisa assays the levels of Abeta total and Abeta 1-42 produced and secreted into the medium of human neuroblastoma SKNBE2 cells are quantified. The assay is based on the human neuroblastoma SKNBE2 expressing the wild type Amyloid Precursor Protein (hAPP695). The compounds are diluted and added to these cells, incubated for 18 hours and then measurements of Abeta 1-42 and Abeta total are taken. Abeta total and Abeta 1-42 are measured by sandwich αLisa. αLisa is a sandwich assay using biotinylated antibody AbN/25 attached to streptavidin coated beads and antibody Ab4G8 or cAb42/26 conjugated acceptor beads for the detection of Abeta total and Abeta 1-42 respectively. In the presence of Abeta total or Abeta 1-42, the beads come into close proximity. The excitation of the donor beads provokes the release of singlet oxygen molecules that trigger a cascade of energy transfer in the acceptor beads, resulting in light emission. Light emission is measured after 1 hour incubation (excitation at […] and emission at 615 nm).
A best-fit curve is fitted by a minimum sum of squares method to the plot of % Controlmin versus compound concentration. From this an IC50 value (inhibitory concentration causing 50% inhibition of activity) can be obtained. • LC=Median of the low control values=Low control: cells preincubated without compound, without biotinylated Ab in the αLisa • HC=Median of the High control values=High Control: cells preincubated without compound
(§1) % Effect=100−[(sample−LC)/(HC−LC)*100]
(§2) % Control=(sample/HC)*100
(§3) % Controlmin=(sample−LC)/(HC−LC)*100

For another experiment, the target named is T1, BACE1 (Homo sapiens, UniProt P56817).
T1 construct: recombinant BACE1 protein in a final concentration of 0.04 μg/ml
T1 sequence (P56817 46-501): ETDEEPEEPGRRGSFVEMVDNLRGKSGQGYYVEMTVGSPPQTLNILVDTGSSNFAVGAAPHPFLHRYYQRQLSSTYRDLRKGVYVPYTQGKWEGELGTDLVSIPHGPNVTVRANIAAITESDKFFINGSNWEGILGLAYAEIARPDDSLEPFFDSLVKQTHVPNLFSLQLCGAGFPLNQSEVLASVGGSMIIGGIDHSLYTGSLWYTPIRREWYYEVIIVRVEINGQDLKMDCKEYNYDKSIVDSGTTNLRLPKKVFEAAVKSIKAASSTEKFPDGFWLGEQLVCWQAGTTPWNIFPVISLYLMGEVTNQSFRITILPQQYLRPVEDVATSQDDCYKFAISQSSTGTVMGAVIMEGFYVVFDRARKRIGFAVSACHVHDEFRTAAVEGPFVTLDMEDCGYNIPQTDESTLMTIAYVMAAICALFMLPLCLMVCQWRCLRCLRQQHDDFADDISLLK
The experiment in a line: BACE1 biochemical FRET based assay. The note with it: recombinant BACE1 0.04 μg/ml, 20 μM substrate, 450 min, pH 5.0; for IC50: read-out: BIOCHEMICAL FRET BASED ASSAY pIC50 (converted).
Excerpt: (§4) This assay is a Fluorescence Resonance Energy Transfer Assay (FRET) based assay. The substrate for this assay is an APP derived 13 amino acids peptide that contains the ‘Swedish’ Lys-Met/Asn-Leu mutation of the amyloid precursor protein (APP) beta-secretase cleavage site. This substrate also contains two fluorophores: (7-methoxycoumarin-4-yl) acetic acid (Mca) is a fluorescent donor with excitation wavelength at 320 nm and emission at 405 nm and 2,4-Dinitrophenyl (Dnp) is a proprietary quencher acceptor. […] Upon cleavage by BACE1, the fluorophore Mca is separated from the quenching group Dnp, restoring the full fluorescence yield of the donor. The increase in fluorescence is linearly related to the rate of proteolysis.
Briefly in a 384-well format recombinant BACE1 protein in a final concentration of 0.04 μg/ml is incubated for 450 minutes at room temperature with 20 μM substrate in incubation buffer (50 mM Citrate buffer pH 5.0, 0.05% PEG) in the presence of compound or DMSO. Next the amount of proteolysis is directly measured by fluorescence measurement (excitation at 320 nm and emission at 405 nm) at different incubation times (0, 30, 60, 90, 120 and 450 min). For every experiment a time curve (every 30 min between 0 min and 120 min) is used to determine the time where we find the lowest basal signal of the high control. The signal at this time (Tx) is used to subtract from the signal at 450 min. Results are expressed in RFU, as difference between T450 and Tx.
(§5) A best-fit curve is fitted by a minimum sum of squares method to the plot of % Controlmin versus compound concentration. From this an IC50 value (inhibitory concentration causing 50% inhibition of activity) can be obtained. • LC=Median of the low control values=Low control: Reaction without enzyme • HC=Median of the High control values=High Control: Reaction with enzyme
as §1, §2, §3

The target of the next experiment is T2, BACE2 (Homo sapiens, UniProt Q9Y5Z0).
T2 construct: recombinant BACE2 protein in a final concentration of 0.4 μg/ml
T2 sequence (Q9Y5Z0 63-518): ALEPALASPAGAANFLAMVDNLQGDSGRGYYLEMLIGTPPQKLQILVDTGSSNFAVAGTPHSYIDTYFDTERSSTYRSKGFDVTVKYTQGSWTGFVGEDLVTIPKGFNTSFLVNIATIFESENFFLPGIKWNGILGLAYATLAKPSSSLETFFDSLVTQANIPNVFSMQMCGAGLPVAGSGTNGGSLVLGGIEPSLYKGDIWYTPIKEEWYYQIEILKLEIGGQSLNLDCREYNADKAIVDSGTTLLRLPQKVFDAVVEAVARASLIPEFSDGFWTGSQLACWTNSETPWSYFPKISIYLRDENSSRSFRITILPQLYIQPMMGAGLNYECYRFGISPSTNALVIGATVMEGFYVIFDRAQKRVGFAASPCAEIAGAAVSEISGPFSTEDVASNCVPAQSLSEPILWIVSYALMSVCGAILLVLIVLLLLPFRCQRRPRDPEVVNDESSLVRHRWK
Description: BACE2 biochemical FRET based assay. The note with it: recombinant BACE2 0.4 μg/ml, 10 μM substrate, 450 min, pH 5.0; for IC50: read-out: BIOCHEMICAL FRET BASED ASSAY pIC50 (converted).
Excerpt: as §4, with “assay” for “assay is an APP derived 13 amino acids peptide that”, “the beta-secretase,” for “BACE1,”
Briefly in a 384-well format recombinant BACE2 protein in a final concentration of 0.4 μg/ml is incubated for 450 minutes at room temperature with 10 μM substrate in incubation buffer (50 mM Citrate buffer pH 5.0, 0.05% PEG, no DMSO) in the absence or presence of compound. Next the amount of proteolysis is directly measured by fluorescence measurement at T=0 and T=450 (excitation at 320 nm and emission at 405 nm). Results are expressed in RFU (Relative Fluorescence Units), as difference between T450 and TO.
as §5, §1, §2, §3

Structures are written as SMILES.

As for `COCC(=O)Nc1cc(C23Cc4c(ccnc4OC)CC2CSC(N)=N3)c(F)cc1F` (single isomer, unassigned) [Compound 199], the “CELLULAR αLISA ASSAY IN SKNBE2 CELLS ABETA 42 PIC50” value in experiment [1] came out at 8.36. For the same compound, the values for the IC50 on BACE1 and on BACE2 were 16.2 nM and 7.08 nM, respectively.
Turning to `COc1nccc2c1CC1(c3ccc(Cl)cc3F)N=C(N)SCC1C2` (racemic) [Compound 7], the values for the IC50 (in experiment [1]; at BACE1; on BACE2) were 70.8 nM, 145 nM and 155 nM, respectively.
For `COc1nccc2c1C[C@@]1(c3cc(OCC4CC4)ccc3F)N=C(N)SC[C@H]1C2` [Compound 184] the same measures were 5370 nM, over 10000 nM and over 10000 nM.
With `COc1nccc2c1CC1(c3cc(C#N)ccc3F)N=C(N)SCC1C2` (racemic) [Compound 9], the IC50 in experiment [1] is 20.9 nM; on BACE1, 132 nM; on BACE2, 219 nM.
On the same counts, the results for `COc1ncc(Br)c2c1C[C@@]1(c3cc(O)ccc3F)N=C(N)SC[C@H]1C2` [Compound 189] are 6920 nM, over 10000 nM and over 10000 nM.
For `COc1ncc(-c2cccnc2)c2c1C[C@]1(c3ccc(F)cc3F)N=C(N)OC[C@@H]1C2` (racemic) [Compound 31] the same measures were 8.91 nM, 69.2 nM and 178 nM.
As to `COc1nccc2c1CC1(c3cc4c(cc3F)OCC(=O)N4)N=C(N)SCC1C2` (racemic) [Compound 15], the IC50 is 17.4 nM in experiment [1], 30.2 nM on BACE1 and 115 nM at BACE2.
On the same counts, the results for `COCC(C)NCc1ccc(F)c(C23Cc4c(ccnc4OC)CC2CSC(N)=N3)c1` (racemic) [Compound 13] are 1.45 nM, 70.8 nM and 39.8 nM.
On to `COc1ncc(Br)c2c1CC1(c3cc(Br)c(F)cc3F)N=C(N)SCC1C2` (racemic) [Compound 19], for which the IC50 was 417 nM in experiment [1], 162 nM at BACE1 and 282 nM at BACE2.
Turning to `COc1nccc2c1C[C@]1(c3ccc(F)cc3F)N=C(N)OC[C@@H]1C2` (racemic) [Compound 30], the IC50 was 170 nM in experiment [1], 692 nM on BACE1 and 1150 nM on BACE2.
Take `COc1nccc2c1C[C@]1(c3cc(-c4cncc(C#N)c4)ccc3F)N=C(N)SC[C@@H]1C2` [Compound 37]: the results for the IC50 (in experiment [1]; on BACE1; on BACE2) were 17 nM, 42.7 nM and 123 nM, respectively.
On to `COc1nccc2c1C[C@]1(c3cc(OCC4CC4)ccc3F)N=C(N)SC[C@@H]1C2` [Compound 136], for which the IC50 is 18.6 nM in experiment [1], 14.8 nM at BACE1 and 14.8 nM on BACE2.
Consider `COc1ncc(-c2cnccc2C)c2c1C[C@]1(c3cc(-c4cncnc4)ccc3F)N=C(N)SC[C@@H]1C2` (racemic) [Compound 27], for which the IC50 in experiment [1] is 3.89 nM; on BACE1, 11.7 nM; on BACE2, 3980 nM.
As to `COc1ncc(C2=CCOCC2)c2c1C[C@]1(c3ccc(F)cc3F)N=C(N)SC[C@@H]1C2` [Compound 46], the “CELLULAR αLISA ASSAY IN SKNBE2 CELLS ABETA 42 PIC50” value in experiment [1] came to 9.21. Moreover, the “BIOCHEMICAL FRET BASED ASSAY pIC50” value is given as 8.64 at BACE1 and 8.44 at BACE2.
With `COc1ccncc1-c1cnc(OC)c2c1C[C@H]1CSC(N)=N[C@@]1(c1ccc(F)cc1F)C2` [Compound 103], the IC50 in experiment [1] was 13.8 nM; on BACE1, 209 nM; on BACE2, 2570 nM.
On to `COc1ncc(-c2cncc(C)c2)c2c1C[C@]1(c3ccc(F)cc3F)N=C(N)SC[C@@H]1C2` [Compound 108], for which the IC50 was 1.32 nM in experiment [1] and 7.76 nM on BACE1.
`COc1nccc2c1CC1(c3cc(-c4cncnc4)ccc3F)N=C(N)SCC1C2` (racemic) [Compound 10]: the IC50 in experiment [1] was 8.51 nM; at BACE1, 35.5 nM; at BACE2, 457 nM.
With `COc1nccc2c1CC1(c3cc(-c4cncc(C#N)c4)ccc3F)N=C(N)SCC1C2` (racemic) [Compound 12], the IC50 in experiment [1] was 22.4 nM; on BACE1, 91.2 nM; at BACE2, 251 nM.
`COc1nccc2c1C[C@@]1(c3cc(-c4cncnc4)ccc3F)N=C(N)SC[C@H]1C2` [Compound 185]: the IC50 in experiment [1] was over 8910 nM; on BACE1, over 10000 nM; at BACE2 it was over 10000 nM.
As to `COc1nccc2c1C[C@@]1(c3cc(-c4cncc(C#N)c4)ccc3F)N=C(N)SC[C@H]1C2` [Compound 186], the figures for the IC50 (in experiment [1]; at BACE1; on BACE2) were over 8910 nM, over 10000 nM and over 10000 nM, respectively.
With `COc1nccc2c1C[C@]1(c3cc(-c4cncnc4)ccc3F)N=C(N)SC[C@@H]1C2` [Compound 38], the IC50 in experiment [1] is 3.55 nM; on BACE1, 15.5 nM; on BACE2 it was 229 nM.
For the compound `COc1ncc(-c2cnccc2C)c2c1CC1(c3cc(O)ccc3F)N=C(N)SCC1C2` (racemic) [Compound 26], the results for the IC50 (in experiment [1]; at BACE1; on BACE2) were 42.7 nM, 25.1 nM and 479 nM, respectively.
As to `COCC(=O)Nc1cc(C23Cc4c(ccnc4OC)CC2CSC(N)=N3)c(F)cc1F` (single isomer, unassigned) [Compound 198], the “CELLULAR αLISA ASSAY IN SKNBE2 CELLS ABETA 42 PIC50” value in experiment [1] stood at 6.58. Also, the IC50 on BACE1 is 1070 nM; at BACE2 it was 501 nM.
For the compound `COc1nccc2c1CC1(c3cc(Br)c(F)cc3F)N=C(N)SCC1C2` (racemic) [Compound 6], the figures for the IC50 (in experiment [1]; on BACE1; on BACE2) were 200 nM, 234 nM and 219 nM, respectively.
